Test results published in patent publication US8178675B2, “Compounds for the treatment of metabolic disorders” (Wellstat Therapeutics Corporation, priority 2005, dated 2012).

What was measured:
[1] = target: T1, human PPARα (Homo sapiens, UniProt Q07869); test: Human PPARα transactivation assay (Gal4/PPAR-LBD, luciferase reporter); format: cell-based
T1 construct: expressed in transfected cells
T1 sequence (Q07869 167-468): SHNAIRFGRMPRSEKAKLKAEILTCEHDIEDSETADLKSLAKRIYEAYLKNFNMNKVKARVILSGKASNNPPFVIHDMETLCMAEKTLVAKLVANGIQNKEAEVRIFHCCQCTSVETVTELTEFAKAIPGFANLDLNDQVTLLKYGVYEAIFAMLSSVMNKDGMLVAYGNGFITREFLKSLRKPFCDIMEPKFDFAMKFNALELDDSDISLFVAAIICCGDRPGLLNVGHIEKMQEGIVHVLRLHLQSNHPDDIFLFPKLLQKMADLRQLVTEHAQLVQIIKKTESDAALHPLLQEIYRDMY
Text: In order to examine the activity of Compound CW on PPARα, a transactivation assay was used. Transactivation assays take advantage of the modular domain structure of nuclear receptors. A fusion protein was made between the human or mouse PPAR ligand binding domain (PPAR-LBD) and the yeast Gal4 DNA binding domain (“activator plasmid”). The reporter gene construct consisted of the Gal4 DNA binding element in cis with a luciferase reporter. When an agonist binds the Gal4/PPAR-LBD, the fusion protein binds the Gal4 DNA binding element on the reporter gene resulting in transcription of the firefly luciferase gene. Luciferase oxidizes the substrate luciferin in an ATP-dependent reaction; the amount of light given off is a direct measure of the level of the enzyme and, consequently, of the activity of the ligand binding the PPAR-LBD.
The activator expressing plasmids contained a yeast GAL4 DNA-binding domain fused to the human PPARα ligand binding and hinge domains (a.a. 167-468). The reporter plasmid used was pFRLuc, which has the firefly luciferase gene under the control of a GAL4 UAS containing promoter (Stratagene (La Jolla, Calif.)).
One day prior to transfection, cells were seeded in 24-well plates at a density of 5×10^4-2×10^5 cells/well, depending upon the cell type. Cells were transfected using Lipofectamine 2000 reagent (Invitrogen (Calsbad, Calif.)). […]

[2] = test system: db/db mice; test: Antidiabetic effects in db/db mouse model of type II diabetes (serum chemistry after 2 weeks daily oral dosing); format: in vivo
Text: db/db mice have a defect in leptin signaling, leading to hyperphagia, obesity and diabetes. Moreover, unlike ob/ob mice on a C57BL/6J background, db/db mice on a C57BLKS background undergo failure of their insulin-producing pancreatic islet cells, resulting in progression from hyperinsulinemia (associated with peripheral insulin resistance) to hypoinsulinemic diabetes.
Male obese (db/db homozygote) C57BL/Ksola mice approximately 8 weeks of age, were obtained from Jackson Labs (Bar Harbor, Me.) and randomly assigned into groups of 5-7 animals such that the body weights (40-45 g) and serum glucose levels (≧300 mg/dl in fed state) were similar between groups; male lean (db/+ heterozygote) mice served as cohort controls. A minimum of 7 days was allowed for adaptation after arrival. All animals were maintained under controlled temperature (23° C.), relative humidity (50±5%) and light (7:00-19:00), and allowed free access to standard chow (Formulab Diet 5008, Quality Lab Products, Elkridge, Md.) and water.
Mice received daily oral doses of vehicle or Compound CW for 2 weeks. At the end of the treatment period 100 μl of venous blood was withdrawn in a heparinized capillary tube from the retro-orbital sinus for serum chemistry analysis. Mice were in the fed state at the time of blood sampling.

[3] = after 2 weeks of daily oral dosing

Row | Maximal activity in transactivation assay ([1]; positive control, same experiment) | Activity on human PPARα (type of agonism) ([1]; Gal4/human PPARα-LBD luciferase transactivation, 24 hours treatment, FIG. 1) | SMILES | Glucose (serum glucose) ([2]; 100 mg/kg daily oral, 2 weeks, fed state, vehicle control 735 ± 66) [mg/dL] | Effect on blood glucose [2, 3] | Effect on serum triglycerides [2, 3] | Triglycerides ± SEM (serum triglycerides) ([2]; daily oral dosing 2 weeks, fed state, vehicle 221 ± 62) [mg/dL]
1 | ~40,000 RLU |  | Cc1cccc(Nc2cc(Cl)nc(SCC(=O)O)n2)c1C [Wy-14,643, reference compound] |  |  |  | 
2 |  | partial agonist | Cc1cccc(C)c1COc1cccc(C(C)C(=O)O)c1 (racemic) [Compound CW, 2-(3-(2,6-Dimethylbenzyloxy)-phenyl)-2-(R,S)-methylacetic acid] | 171 ± 66 | significant reduction | reduced | 109 ± 13
